Assay results as given in ChEMBL document CHEMBL3045863, “The direct toxicity of BABA against grapevine ecosystem organisms” (2009).
Calls of active or inactive are those of the source. The rule behind the calls is not given here.

Assays:
Saccharomyces cerevisiae [1] = test: Antifungal activity against Saccharomyces cerevisiae BW15 assessed as reduction of doubling time at 0.001 to 100 mM; assay type: functional, organism-based
Saccharomyces cerevisiae [2] = test: Antifungal activity against Saccharomyces cerevisiae 58W3D4 assessed as reduction of doubling time at 0.001 to 100 mM; assay type: functional, organism-based
Botrytis cinerea [3] = test: Antifungal activity against Botryotinia fuckeliana T4 assessed as inhibition of mycelial growth 2.4 mM at pH 7 after 5 days; assay type: functional
Botrytis cinerea [4] = test: Antifungal activity against Botryotinia fuckeliana T4 assessed as inhibition of mycelial growth 2.4 mM at pH 4 after 5 days; assay type: functional
Botrytis cinerea [5] = test: Antifungal activity against Botryotinia fuckeliana T4 assessed as inhibition of spore germination after 5 days; assay type: functional, organism-based
Botrytis cinerea [6] = test: Antifungal activity against Botryotinia fuckeliana T4 assessed as inhibition of mycelial growth after 5 days; assay type: functional, organism-based
Saccharomyces cerevisiae [7] = test: Antifungal activity against Saccharomyces cerevisiae FL100 ATCC 28383 assessed as reduction of doubling time at > 10 mM; assay type: functional, organism-based

## CC(N)CC(=O)O (racemic)
Saccharomyces cerevisiae [1]
  Activity: inactive
Saccharomyces cerevisiae [2]
  Activity: inactive
Botrytis cinerea [3]
  inhibition (INH): 40%
Botrytis cinerea [4]
  inhibition (INH): 100%
Botrytis cinerea [5]
  inhibition: Dose-dependent effect
Botrytis cinerea [6]
  inhibition: Dose-dependent effect
Saccharomyces cerevisiae [7]
  Activity: Active
